Assay results from patent US10669290B2, “Beta-lactamase inhibitors” (priority 2012, dated 2020).

What was measured:
Format in all cases: cell-based
K.P. A-1797 KPC-2 VIM-4 = assay: Broth microdilution MIC, K. pneumoniae A-1797; conditions: Klebsiella pneumoniae; fixed meropenem 4 μg/mL, CAMHB, 16-20 hours 37° C.; read-out: MIC of exemplary compounds in presence of fixed β-lactams, Fixed Mero, K.P. A-1797 KPC-2 VIM-4
Text: (§1) To determine the ability of test compounds to potentiate the inhibition of the growth of bacterial strains that produce beta-lactamase enzymes, classic cell based broth microdilution MIC assays were employed. Six bacteria strains producing beta-lactamase enzymes were used: E. coli expressing the Class A Extended Spectrum Beta-Lactamase (ESBL) CTX-M-15, E. cloacae expressing the Class C P99, K. pneumoniae expressing the Class A carbapenemase KPC-2, P. aeruginosa expressing the Class B carbapenemase VIM-2, K. pneumoniae expressing the class A carbapenemase KPC-2 and the class B carbapenemase VIM-4, and S. aureus producing the Class A penicillinase PC-1. The assay was conducted in Cation Adjusted Mueller Hinton Broth (CAMHB, BD #212322, BD Diagnostic Systems, Sparks, Md.). Bacteria strains were grown for 3-5 hours in CAMBH broth. Test compounds were added to a microtiter plate in 2-fold serial dilutions in CAMHB in a final concentration range of 32 μg/mL to 0.25 μg/ml. An overlay of CAMHB containing a Beta-lactam was added to the compounds at a final static concentration of 4 μg/ml. […] In addition to the titration of test compounds the MICs of a panel of control beta-lactams is also tested to ensure the strains are behaving consistently from test to test. Once the test compound and antibiotics are added the plates can be inoculated according to CLSI broth microdilution method. After inoculation the plates are incubated for 16-20 hours at 37° C. then the Minimal Inhibitory Concentration (MIC) of the test compound is determined visually.
(§2) Using the methodology described above in EXAMPLE III, exemplary compounds for Formula I or Formula Ia were evaluated for their ability to inhibit the growth of β-lactamase producing bacteria in the presence of a β-lactam antibiotic.

E. coli ESBL4 CTX-M-15 = assay: Broth microdilution MIC, E. coli ESBL4; conditions: Escherichia coli, ESBL4CTXM15; fixed ceftazidime 4 μg/mL, CAMHB, 16-20 hours 37° C.; read-out: MIC of exemplary compounds in presence of fixed β-lactams, Fixed CAZ, E. coli ESBL4 CTX-M-15
Text: as §1, §2

K.P. 156319 KPC-3 = assay: Broth microdilution MIC, K. pneumoniae 156319; conditions: Klebsiella pneumoniae; fixed meropenem 4 μg/mL, CAMHB, 16-20 hours 37° C.; read-out: MIC of exemplary compounds in presence of fixed β-lactams, Fixed Mero, K.P. 156319 KPC-3
E. cl 144200 p99 AmpC = assay: Broth microdilution MIC, E. cloacae 144200; conditions: Enterobacter cloacae; fixed ceftazidime 4 μg/mL, CAMHB, 16-20 hours 37° C.; read-out: MIC of exemplary compounds in presence of fixed β-lactams, Fixed CAZ, E. cl 144200 p99 AmpC
Text: as §1, §2

P. aerug. Ps296 VIM-2 = assay: Broth microdilution MIC, P. aeruginosa Ps296; conditions: Pseudomonas aeruginosa; fixed meropenem 4 μg/mL, CAMHB, 16-20 hours 37° C.; read-out: MIC of exemplary compounds in presence of fixed β-lactams, Fixed Mero, P. aerug. Ps296 VIM-2
Text: as §1, §2

S. aureus MSSA-7 PC-1 = assay: Broth microdilution MIC, S. aureus MSSA-7; conditions: Staphylococcus aureus, fixed piperacillin 4 μg/mL, CAMHB, 16-20 hours 37° C., read-out: MIC of exemplary compounds in presence of fixed β-lactams, Fixed Pip, S. aureus MSSA-7 PC-1
Text: as §1, §2

Structure (SMILES)	MIC (K.P. A-1797 KPC-2 VIM-4)	MIC (E. coli ESBL4 CTX-M-15)	MIC (K.P. 156319 KPC-3)	MIC (E. cl 144200 p99 AmpC)	MIC (P. aerug. Ps296 VIM-2)	MIC (S. aureus MSSA-7 PC-1)
NC1CCC(O)(CC(=O)N[C@H]2Cc3cccc(C(=O)O)c3OB2O)CC1 (stereo partly drawn) [Example 44, 3-[2-(4-Amino-1-hydroxy-cyclohexyl)-acetylamino]-2-hydroxy-3,4-dihydro-2H-benzo[e][1,2]oxaborinine-8-carboxylic acid]	< 4 µg/mL	< 4 µg/mL	< 4 µg/mL	< 4 µg/mL	8 to 32 µg/mL	8 to 32 µg/mL
N[C@H]1CC[C@H](NCC(=O)N[C@H]2Cc3cccc(C(=O)O)c3OB2O)CC1 [Example 45, 3-[2-(4-Amino-cyclohexylamino)-acetylamino]-2-hydroxy-3,4-dihydro-2H-benzo[e][1,2]oxaborinine-8-carboxylic acid]	8 to 32 µg/mL	< 4 µg/mL	< 4 µg/mL	< 4 µg/mL	8 to 32 µg/mL	< 4 µg/mL
NCCN[C@H]1CC[C@@H](CC(=O)N[C@H]2Cc3cccc(C(=O)O)c3OB2O)CC1 [Example 46, (R)-3-(2-(cis-4-(2-aminoethylamino)cyclohexyl)acetamido)-2-hydroxy-3,4-dihydro-2H-benzo[e][1,2]oxaborinine-8-carboxylic acid]	< 4 µg/mL	< 4 µg/mL	< 4 µg/mL	< 4 µg/mL	< 4 µg/mL	< 4 µg/mL
O=C(C[C@H]1CC[C@H](NCCNc2ccccn2)CC1)N[C@H]1Cc2cccc(C(=O)O)c2OB1O [Example 48, (R)-2-hydroxy-3-(2-(trans-4-(2-(pyridin-2-ylamino)ethylamino)cyclohexyl)acetamido)-3,4-dihydro-2H-benzo[e][1,2]oxaborinine-8-carboxylic acid]	8 to 32 µg/mL	< 4 µg/mL	< 4 µg/mL	< 4 µg/mL	8 to 32 µg/mL	< 4 µg/mL
CS(=O)(=O)NCCN[C@H]1CC[C@H](CC(=O)N[C@H]2Cc3cccc(C(=O)O)c3OB2O)CC1 [Example 49, (R)-2-hydroxy-3-(2-(trans-4-(2-(methylsulfonamido)ethylamino)cyclohexyl)acetamido)-3,4-dihydro-2H-benzo[e][1,2]oxaborinine-8-carboxylic acid]	8 to 32 µg/mL	< 4 µg/mL	< 4 µg/mL	< 4 µg/mL	8 to 32 µg/mL	< 4 µg/mL
NCCN[C@H]1CC[C@H](CC(=O)N[C@@H]2Cc3cccc(C(=O)O)c3OB2O)CC1 [Example 50, (S)-3-(2-(trans-4-(2-aminoethylamino)cyclohexyl)acetamido)-2-hydroxy-3,4-dihydro-2H-benzo[e][1,2]oxaborinine-8-carboxylic acid]	8 to 32 µg/mL	< 4 µg/mL	> 32 µg/mL	< 4 µg/mL	< 4 µg/mL	< 4 µg/mL
CNCCN[C@H]1CC[C@H](CC(=O)N[C@H]2Cc3cccc(C(=O)O)c3OB2O)CC1 [Example 51, (R)-2-hydroxy-3-(2-(trans-4-(2-(methylamino)ethylamino)cyclohexyl)acetamido)-3,4-dihydro-2H-benzol[e][1,2]oxaborinine-8-carboxylic acid]	< 4 µg/mL	< 4 µg/mL	< 4 µg/mL	< 4 µg/mL	< 4 µg/mL	< 4 µg/mL
CN1CCN([C@H]2CC[C@H](CC(=O)N[C@H]3Cc4cccc(C(=O)O)c4OB3O)CC2)C1=N [Example 52, (R)-2-hydroxy-3-(2-(trans-4-(2-imino-3-methylimidazolidin-1-yl)cyclohexyl)acetamido)-3,4-dihydro-2H-benzo[e][1,2]oxaborinine-8-carboxylic acid]	> 32 µg/mL	< 4 µg/mL	8 to 32 µg/mL	< 4 µg/mL	> 32 µg/mL	< 4 µg/mL
C[C@H](N)CN[C@H]1CC[C@H](CC(=O)N[C@H]2Cc3cccc(C(=O)O)c3OB2O)CC1 [Example 53, (R)-3-(2-(trans-4-((S)-2-aminopropylamino)cyclohexyl)acetamido)-2-hydroxy-3,4-dihydro-2H-benzo[e][1,2]oxaborinine-8-carboxylic acid]	< 4 µg/mL	< 4 µg/mL	< 4 µg/mL	< 4 µg/mL	< 4 µg/mL	< 4 µg/mL
COC(=O)NCCN[C@H]1CC[C@H](CC(=O)N[C@H]2Cc3cccc(C(=O)O)c3OB2O)CC1 [Example 54, (R)-2-hydroxy-3-(2-(trans-4-(2-(methoxycarbonylamino)ethylamino)cyclohexyl)acetamido)-3,4-dihydro-2H-benzo[e][1,2]oxaborinine-8-carboxylic acid]	8 to 32 µg/mL	< 4 µg/mL	< 4 µg/mL	< 4 µg/mL	< 4 µg/mL	< 4 µg/mL
NCCNC1CC(CC(=O)N[C@H]2Cc3cccc(C(=O)O)c3OB2O)C1 (stereo partly drawn) [Example 55, (R)-3-(2-(3-(2-aminoethylamino)cyclobutyl)acetamido)-2-hydroxy-3,4-dihydro-2H-benzo[e][1,2]oxaborinine-8-carboxylic acid]	< 4 µg/mL	< 4 µg/mL	< 4 µg/mL	< 4 µg/mL	< 4 µg/mL	< 4 µg/mL
NC1CC(CC(=O)N[C@H]2Cc3cccc(C(=O)O)c3OB2O)C1 (stereo partly drawn) [Example 56, (R)-3-(2-(3-aminocyclobutyl)acetamido)-2-hydroxy-3,4-dihydro-2H-benzo[e][1,2]oxaborinine-8-carboxylic acid]	< 4 µg/mL	< 4 µg/mL	< 4 µg/mL	< 4 µg/mL	< 4 µg/mL	< 4 µg/mL
NCCNC(=O)NCCN(C(=O)NCCN)C1CC(CC(=O)N[C@H]2Cc3cccc(C(=O)O)c3OB2O)C1 (stereo partly drawn) [Example 57, (R)-3-(2-(3-(3-(2-aminoethyl)-1-(2-(3-(2-aminoethyl)ureido)ethyl)ureido)cyclobutyl)acetamido)-2-hydroxy-3,4-dihydro-2H-benzo[e][1,2]oxaborinine-8-carboxylic acid]	8 to 32 µg/mL	< 4 µg/mL	< 4 µg/mL	< 4 µg/mL	< 4 µg/mL	< 4 µg/mL
NCCNC(=O)NC1CC(CC(=O)N[C@H]2Cc3cccc(C(=O)O)c3OB2O)C1 (stereo partly drawn) [Example 58, (R)-3-(2-(3-(3-(2-aminoethyl)ureido)cyclobutyl)acetamido)-2-hydroxy-3,4-dihydro-2H-benzo[e][1,2]oxaborinine-8-carboxylic acid]	< 4 µg/mL	< 4 µg/mL	< 4 µg/mL	< 4 µg/mL	< 4 µg/mL	< 4 µg/mL
NCCNC(=O)N[C@H]1CC[C@H](CC(=O)N[C@H]2Cc3cccc(C(=O)O)c3OB2O)CC1 [Example 59, (R)-3-(2-(trans-4-(3-(2-aminoethyl)ureido)cyclohexyl)acetamido)-2-hydroxy-3,4-dihydro-2H-benzo[e][1,2]oxaborinine-8-carboxylic acid]	8 to 32 µg/mL	< 4 µg/mL	< 4 µg/mL	< 4 µg/mL	< 4 µg/mL	< 4 µg/mL
NCCCN[C@H]1CC[C@H](CC(=O)N[C@H]2Cc3cccc(C(=O)O)c3OB2O)CC1 [Example 60, (R)-3-(2-(trans-4-(3-aminopropylamino)cyclohexyl)acetamido)-2-hydroxy-3,4-dihydro-2H-benzo[e][1,2]oxaborinine-8-carboxylic acid]	< 4 µg/mL	< 4 µg/mL	< 4 µg/mL	< 4 µg/mL	< 4 µg/mL	< 4 µg/mL
O=C(C[C@H]1CC[C@H](NCCNCCO)CC1)N[C@H]1Cc2cccc(C(=O)O)c2OB1O [Example 61, (R)-2-hydroxy-3-(2-(trans-4-(2-(2-hydroxyethylamino)ethylamino)cyclohexyl)acetamido)-3,4-dihydro-2H-benzo[e][1,2]oxaborinine-8-carboxylic acid]	< 4 µg/mL	< 4 µg/mL	< 4 µg/mL	< 4 µg/mL	< 4 µg/mL	< 4 µg/mL
